Where only a bound is given, the exact number is not on record here.

The first data set can be described thus: Solubility in oil (sesame oil, benzyl benzoate), visual observation. Particulars: benzyl benzoate, oil or lipid, thermodynamic from solid.
Regarding `COC(=O)OCN1C(=O)CCc2ccc(OCCCCN3CCN(c4cccc5sccc45)CC3)cc21` [Example 72, carbonic acid 7-[4-(4-benzo[b]thiophen-4-ylpiperazin-1-yl)butoxy]-2-oxo-3,4-dihydro-2H-quinolin-1-ylmethyl ester methyl ester], the solubility (as a rule, the dissolved amount per volume that the medium holds) is over 100 mg/mL.
On the same count and under the same terms, the same measure for `COC(=O)CN(C)C(=O)OCn1c(=O)ccc2ccc(OCCCCN3CCN(c4cccc5sccc45)CC3)cc21` [Example 73, ({7-[4-(4-benzo[b]thiophen-4-ylpiperazin-1-yl)butoxy]-2-oxo-2H-quinolin-1-ylmethoxycarbonyl}methylamino)acetic acid methyl ester]: over 100 mg/mL; for `C=CCCCCCCCCC(=O)OCn1c(=O)ccc2ccc(OCCCCN3CCN(c4cccc5sccc45)CC3)cc21` [Example 74, undec-10-enoic acid 7-[4-(4-benzo[b]thiophen-4-ylpiperazin-1-yl)butoxy]-2-oxo-2H-quinolin-1-ylmethyl ester]: over 100 mg/mL; for `CCCCCCCCCCCCCCCCCCNC(=O)OCN1C(=O)CCc2ccc(OCCCCN3CCN(c4cccc5sccc45)CC3)cc21` [Example 75, N-octadecylcarbamic acid 7-[4-(4-benzo[b]thiophen-4-ylpiperazin-1-yl)butoxy]-2-oxo-3,4-dihydro-2H-quinolin-1-ylmethyl ester]: over 100 mg/mL.
`CCCCCCCCCCCCCCCNC(=O)OCN1C(=O)CCc2ccc(OCCCCN3CCN(c4cccc5sccc45)CC3)cc21` [Example 76, N-pentadecylcarbamic acid 7-[4-(4-benzo[b]thiophen-4-ylpiperazin-1-yl)butoxy]-2-oxo-3,4-dihydro-2H-quinolin-1-ylmethyl ester] yielded a solubility of over 100 mg/mL.
Same read-out and setting: the same measure for `CCC(C)C(=O)OCN1C(=O)CCc2ccc(OCCCCN3CCN(c4cccc5sccc45)CC3)cc21` (stereo not drawn) [Example 77, 2-methylbutyric acid 7-[4-(4-benzo[b]thiophen-4-ylpiperazin-1-yl)butoxy]-2-oxo-3,4-dihydro-2H-quinolin-1-ylmethyl ester]: over 100 mg/mL; for `CCCCC(C)C(=O)OCN1C(=O)CCc2ccc(OCCCCN3CCN(c4cccc5sccc45)CC3)cc21` (stereo not drawn) [Example 78, 2-methylhexanoic acid 7-[4-(4-benzo[b]thiophen-4-ylpiperazin-1-yl)butoxy]-2-oxo-3,4-dihydro-2H-quinolin-1-ylmethyl ester]: over 100 mg/mL.
Compound `CCCCCCCCCCCCCCCCCCN(C)C(=O)OCN1C(=O)CCc2ccc(OCCCCN3CCN(c4cccc5sccc45)CC3)cc21` [Example 79, N-methyl-N-octadecylcarbamic acid 7-[4-(4-benzo[b]thiophen-4-ylpiperazin-1-yl)butoxy]-2-oxo-3,4-dihydro-2H-quinolin-1-ylmethyl ester] had a solubility of over 100 mg/mL.
Still for that read-out and setting: the same measure for `O=C(NCc1ccccc1)OCN1C(=O)CCc2ccc(OCCCCN3CCN(c4cccc5sccc45)CC3)cc21` [Example 80, N-benzylcarbamic acid 7-[4-(4-benzo[b]thiophen-4-ylpiperazin-1-yl)butoxy]-2-oxo-3,4-dihydro-2H-quinolin-1-ylmethyl ester]: over 100 mg/mL; for `CCCC(C)C(=O)OCN1C(=O)CCc2ccc(OCCCCN3CCN(c4cccc5sccc45)CC3)cc21` (stereo not drawn) [Example 81, 2-methylpentanoic acid 7-[4-(4-benzo[b]thiophen-4-ylpiperazin-1-yl)butoxy]-2-oxo-3,4-dihydro-2H-quinolin-1-ylmethyl ester]: over 100 mg/mL; for `CCCCCCCCCCCCCC(=O)OCN1C(=O)CCc2ccc(OCCCCN3CCN(c4cccc5sccc45)CC3)cc21` [Example 82, tetradecanoic acid 7-[4-(4-benzo[b]thiophen-4-ylpiperazin-1-yl)butoxy]-2-oxo-3,4-dihydro-2H-quinolin-1-ylmethyl ester]: over 100 mg/mL.
The same measure, in the same setting: then `O=C(NC1CCCCC1)OCN1C(=O)CCc2ccc(OCCCCN3CCN(c4cccc5sccc45)CC3)cc21` [Example 83, N-cyclohexylcarbamic acid 7-[4-(4-benzo[b]thiophen-4-ylpiperazin-1-yl)butoxy]-2-oxo-3,4-dihydro-2H-quinolin-1-ylmethyl ester], with over 100 mg/mL.
Same read-out and setting: then `CCCCC(C)(C)C(=O)OCN1C(=O)CCc2ccc(OCCCCN3CCN(c4cccc5sccc45)CC3)cc21` [Example 84, 2,2-dimethylhexanoic acid 7-[4-(4-benzo[b]thiophen-4-ylpiperazin-1-yl)butoxy]-2-oxo-3,4-dihydro-2H-quinolin-1-ylmethyl ester], with over 100 mg/mL.
`CC(=O)OCN1C(=O)CCc2ccc(OCCCCN3CCN(c4cccc5sccc45)CC3)cc21` [Example 85, acetic acid 7-[4-(4-benzo[b]thiophen-4-ylpiperazin-1-yl)butoxy]-2-oxo-3,4-dihydro-2H-quinolin-1-ylmethyl ester] displayed a solubility of over 100 mg/mL.
On the same count and under the same terms, then `O=C(OCN1C(=O)CCc2ccc(OCCCCN3CCN(c4cccc5sccc45)CC3)cc21)N1CCOCC1` [Example 86, morpholine-4-carboxylic acid 7-[4-(4-benzo[b]thiophen-4-ylpiperazin-1-yl)butoxy]-2-oxo-3,4-dihydro-2H-quinolin-1-ylmethyl ester], with over 100 mg/mL; and `CCC(C)C(=O)OCn1c(=O)ccc2ccc(OCCCCN3CCN(c4cccc5sccc45)CC3)cc21` (stereo not drawn) [Example 87, 2-methylbutyric acid 7-[4-(4-benzo[b]thiophen-4-ylpiperazin-1-yl)butoxy]-2-oxo-2H-quinolin-1-ylmethyl ester], with over 100 mg/mL; and `CCCCC(C)C(=O)OCn1c(=O)ccc2ccc(OCCCCN3CCN(c4cccc5sccc45)CC3)cc21` (stereo not drawn) [Example 88, 2-methylhexanoic acid 7-[4-(4-benzo[b]thiophen-4-ylpiperazin-1-yl)butoxy]-2-oxo-2H-quinolin-1-ylmethyl ester], with over 100 mg/mL.
In the case of `COC(=O)CNC(=O)OCN1C(=O)CCc2ccc(OCCCCN3CCN(c4cccc5sccc45)CC3)cc21` [Example 89, {7-[4-(4-benzo[b]thiophen-4-ylpiperazin-1-yl)butoxy]-2-oxo-3,4-dihydro-2H-quinolin-1-ylmethoxycarbonylamino}acetic acid methyl ester], the solubility was over 100 mg/mL.
The same measure, in the same setting: the same measure for `COC(=O)CN(C)C(=O)OCN1C(=O)CCc2ccc(OCCCCN3CCN(c4cccc5sccc45)CC3)cc21` [Example 90, ({7-[4-(4-benzo[b]thiophen-4-ylpiperazin-1-yl)butoxy]-2-oxo-3,4-dihydro-2H-quinolin-1-ylmethoxycarbonyl}methylamino)acetic acid methyl ester]: over 100 mg/mL; for `CCCCCCCCCCCCCCC(=O)OCN1C(=O)CCc2ccc(OCCCCN3CCN(c4cccc5sccc45)CC3)cc21` [Example 91, pentadecanoic acid 7-[4-(4-benzo[b]thiophen-4-ylpiperazin-1-yl)butoxy]-2-oxo-3,4-dihydro-2H-quinolin-1-ylmethyl ester]: over 100 mg/mL.
The compound `CCCCCC(C)C(=O)OCN1C(=O)CCc2ccc(OCCCCN3CCN(c4cccc5sccc45)CC3)cc21` (stereo not drawn) [Example 92, 2-methylheptanoic acid 7-[4-(4-benzo[b]thiophen-4-ylpiperazin-1-yl)butoxy]-2-oxo-3,4-dihydro-2H-quinolin-1-ylmethyl ester] had a solubility of over 100 mg/mL.

The data set is the same for the next values; noted with them: sesame oil, oil or lipid, thermodynamic from solid.
As for `CCCCCCCCCCCCCCCCCCNC(=O)OCN1C(=O)CCc2ccc(OCCCCN3CCN(c4cccc5sccc45)CC3)cc21` [Example 75, N-octadecylcarbamic acid 7-[4-(4-benzo[b]thiophen-4-ylpiperazin-1-yl)butoxy]-2-oxo-3,4-dihydro-2H-quinolin-1-ylmethyl ester], the solubility is over 100 mg/mL.
The same measure, in the same setting: the same measure for `CCCCCCCCCCCCCCCNC(=O)OCN1C(=O)CCc2ccc(OCCCCN3CCN(c4cccc5sccc45)CC3)cc21` [Example 76, N-pentadecylcarbamic acid 7-[4-(4-benzo[b]thiophen-4-ylpiperazin-1-yl)butoxy]-2-oxo-3,4-dihydro-2H-quinolin-1-ylmethyl ester]: over 100 mg/mL; for `CCCCCCCCCCCCCCCCCCN(C)C(=O)OCN1C(=O)CCc2ccc(OCCCCN3CCN(c4cccc5sccc45)CC3)cc21` [Example 79, N-methyl-N-octadecylcarbamic acid 7-[4-(4-benzo[b]thiophen-4-ylpiperazin-1-yl)butoxy]-2-oxo-3,4-dihydro-2H-quinolin-1-ylmethyl ester]: over 100 mg/mL.

For the origin of these results see patent US9539252B2, “Piperazine-substituted benzothiophene derivatives as antipsychotic agents” (OTSUKA PHARMACEUTICAL CO., LTD., priority 2011, dated 2017).
